These compounds were tested against human capsaicin receptor (VR1) (Homo sapiens, UniProt Q8NER1) (assay: Capsaicin receptor binding assay ([3H]RTX competition, VR1-transfected HEK293 membranes)).
human capsaicin receptor (VR1), sequence (Q8NER1 whole entry): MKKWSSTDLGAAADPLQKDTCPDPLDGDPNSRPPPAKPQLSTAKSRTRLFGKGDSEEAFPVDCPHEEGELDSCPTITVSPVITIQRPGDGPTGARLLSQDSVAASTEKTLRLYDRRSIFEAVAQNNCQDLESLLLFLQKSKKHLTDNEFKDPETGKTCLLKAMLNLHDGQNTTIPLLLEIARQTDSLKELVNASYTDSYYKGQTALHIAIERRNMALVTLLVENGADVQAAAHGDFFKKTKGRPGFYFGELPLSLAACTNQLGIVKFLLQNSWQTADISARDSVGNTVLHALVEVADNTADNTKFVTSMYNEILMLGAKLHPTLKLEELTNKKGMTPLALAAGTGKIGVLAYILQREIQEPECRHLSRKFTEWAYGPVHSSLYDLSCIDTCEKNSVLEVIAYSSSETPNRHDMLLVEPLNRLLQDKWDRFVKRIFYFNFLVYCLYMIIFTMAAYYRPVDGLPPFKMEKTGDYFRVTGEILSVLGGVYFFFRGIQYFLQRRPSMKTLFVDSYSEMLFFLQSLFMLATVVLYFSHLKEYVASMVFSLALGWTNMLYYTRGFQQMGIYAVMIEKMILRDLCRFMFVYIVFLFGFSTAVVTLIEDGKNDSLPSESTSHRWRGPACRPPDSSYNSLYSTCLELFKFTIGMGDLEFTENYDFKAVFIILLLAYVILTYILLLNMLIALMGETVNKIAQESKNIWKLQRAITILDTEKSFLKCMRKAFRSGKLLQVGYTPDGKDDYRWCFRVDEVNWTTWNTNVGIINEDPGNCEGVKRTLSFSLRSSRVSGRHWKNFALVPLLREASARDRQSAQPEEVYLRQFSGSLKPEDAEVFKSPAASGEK
`FC(F)(F)c1ccc(Nc2nc(C3N=NN=N3)nc3cc(-c4ncccc4C(F)(F)F)ccc23)cc1` [Compound 510, [2-(5H-Tetrazol-5-yl)-7-(3-trifluoromethyl-pyridin-2-yl)-quinazolin-4-yl]-(4-trifluoromethyl-phenyl)-amine] gave a Ki of under 1 µM.
For `CC(C)COCc1nc(Nc2ccc(Cl)cc2)c2ccc(-c3ncccc3Cl)nc2n1` [Compound 260, (4-Chloro-phenyl)-[7-(3-chloro-pyridin-2-yl)-2-isobutoxymethyl-pyrido[2,3-d]pyrimidin-4-yl]-amine], the Ki was under 1 µM.
In the case of `O=C(c1nc(Nc2ccc(C(F)(F)F)cc2)c2ccc(-c3ncccc3C(F)(F)F)nc2n1)N1CCCC1` [Compound 459, Pyrrolidin-1-yl-[4-(4-trifluoromethyl-phenylamino)-7-(3-trifluoromethyl-pyridifl-2-yl)-pyrido[2,3-d]pyrimidin-2-yl]-methanone], the Ki is reported as under 1 µM.
`FC(F)(F)c1ccc(Nc2nc(CCN3CCc4ccccc4C3)nc3cc(-c4ncccc4C(F)(F)F)ccc23)cc1` [Compound 393, [2-[2-(3,4-Dihydro-1H-isoquinolin-2-yl)-ethyl]-7-(3-trifluoromethyl-pyridin-2-yl)-quinazolin-4-yl]-(4-trifluoromethyl-phenyl)-amine] showed a Ki of under 1 µM.
Work on `FC(F)(F)c1ccc(Nc2nc(Cn3ccnc3)nc3cc(-c4ncccc4C(F)(F)F)ccc23)cn1` [Compound 579, [2-Imidazol-1-ylmethyl-7-(3-trifluoromethyl-pyridin-2-yl)-quinazolin-4-yl]-(6-trifluoromethyl-pyridin-3-yl)-amine] yielded a Ki of under 1 µM.
Work on `COCCN1CCN(Cc2nc(Nc3ccc(C(F)(F)F)cc3)c3ccc(-c4ncccc4C(F)(F)F)cc3n2)CC1` [Compound 514, [2-[4-(2-Methoxy-ethyl)-piperazin-1-ylmethyl]-7-(3-trifluoromethyl-pyridin-2-yl)-quinazolin-4-yl]-(4-trifluoromethyl-phenyl)-amine] yielded a Ki of under 1 µM.
`COCCc1nc(Nc2ccc(C(F)(F)F)cc2)c2ccc(-c3ncccc3Cl)nc2n1` [Compound 85, [7-(3-Chloro-pyridin-2-yl)-2-(2-methoxy-ethyl)-pyrido[2,3-d]pyrimidin-4-yl]-(4-trifluoromethyl-phenyl)-amine] showed a Ki of under 1 µM.
Work on `CCOC(=O)c1nc(Nc2ccc(C(F)(F)F)cc2)c2ccc(-c3ncccc3C(F)(F)F)cc2n1` [Compound 99, 4-(4-Trifluoromethyl-phenylamino)-7-(3-trifluoromethyl-pyridin-2-yl)-quinazoline-2-carboxylic acid ethyl ester] yielded a Ki of under 1 µM.
In the case of `CCOCc1cc(Nc2ccc(C(F)(F)F)cc2)c2ccc(-c3ncccc3C(F)(F)F)nc2n1` [Compound 310, [2-Ethoxymethyl-7-(3-trifluoromethyl-pyridin-2-yl)-[1,8]naphthyridin-4-yl]-(4-trifluoromethyl-phenyl)-amine], the Ki is reported as under 1 µM.
Compound `CCOc1ccc(Nc2nc(COCC(C)C)nc3nc(-c4ncccc4Cl)ccc23)cc1` [Compound 264, [7-(3-Chloro-pyridin-2-yl)-2-isobutoxymethyl-pyrido[2,3-d]pyrimidin-4-yl]-(4-ethoxy-phenyl)-amine] has a Ki of under 1 µM.
`CC1CCCN(CCCc2nc(Nc3ccc(C(F)(F)F)cc3)c3ccc(-c4ncccc4C(F)(F)F)cc3n2)C1` (centres unmarked) [Compound 572, [2-[3-(3-Methyl-piperidin-1-yl)-propyl]-7-(3-trifluoromethyl-pyridin-2-yl)-quinazolin-4-yl]-(4-trifluoromethyl-phenyl)-amine] was tested, and the Ki was under 1 µM.
Compound `COCc1nc(Nc2ccc(C(C)(C)C)cc2)c2ncc(-c3ncccc3Cl)cc2n1` [Compound 65, (4-tert-Butyl-phenyl)-[7-(3-chloro-pyridin-2-yl)-2-methoxymethyl-pyrido[3,2-d]pyrimidin-4-yl]-amine] has a Ki of under 1 µM.
Compound `COc1ccccc1-c1ccc2c(Nc3ccc(C(F)(F)F)cc3)nc(CN3C[C@@H](C)O[C@@H](C)C3)nc2c1` [Compound 638, [2-(2,6-Dimethyl-morpholin-4-ylmethyl)-7-(2-methoxy-phenyl)-quinazolin-4-yl]-(4-trifluoromethyl-phenyl)-amine (cis)] has a Ki of under 1 µM.
With `O=S(=O)(c1ccc(Nc2nc(COCc3ccccc3)nc3cc(-c4ncccc4C(F)(F)F)ccc23)cc1)C(F)(F)F` [Compound 28, [2-Benzyloxymethyl-7-(3-trifluoromethyl-pyridin-2-yl)-quinazolin-4-yl]-(4-trifluoromethanesulfonyl-phenyl)-amine] the Ki was under 1 µM.
With `CN(C)CCNC(=O)c1nc(Nc2ccc(C(F)(F)F)cc2)c2ccc(-c3ncccc3C(F)(F)F)nc2n1` [Compound 435, 4-(4-Trifluoromethyl-phenylamino)-7-(3-trifluoromethyl-pyridin-2-yl)-pyrido[2,3-d]pyrimidine-2-carboxylic acid (2-dimethylamino-ethyl)-amide] the Ki was under 1 µM.
`CCCCN(CCCC)Cc1nc(Nc2ccc(C(F)(F)F)cc2)c2ncc(-c3ncccc3C(F)(F)F)cc2n1` [Compound 666, [2-Dibutylaminomethyl-7-(3-trifluonmethyl-pyridin-2-yl)-pyrido[3,2-d]pyrimidin-4-yl]-(4-trifluoromethyl-phenyl)-amine] gave a Ki of under 1 µM.
Work on `COCc1nc(Nc2ccc(C(C)(C)C)cc2)c2ccc(-c3nccnc3Cl)nc2n1` [Compound 236, (4-tert-Butyl-phenyl)-[7-(3-chloro-pyrazin-2-yl)-2-methoxymethyl-pyrido[2,3-d]pyrimidin-4-yl]-amine] yielded a Ki of under 1 µM.
In the case of `FC(F)(F)c1ccc(Nc2nc(CNC3CCSCC3)nc3cc(-c4ncccc4C(F)(F)F)ccc23)cn1` [Compound 554, [2-[(Tetrahydro-thiopyran-4-ylamino)-methyl]-7-(3-trifluoromethyl-pyridin-2-yl)-quinazolin-4-yl]-(6-trifluoromethyl-pyridin-3-yl)-amine], the Ki is reported as under 1 µM.
Work on `COCc1nc(Nc2ccc(C(C)C)cc2)c2ccc(-c3ncccc3C)nc2n1` [Compound 96, (4-Isopropyl-phenyl)-[2-methoxymethyl-7-(3-methyl-pyridin-2-yl)-pyrido[2,3-d]pyrimidin-4-yl]-amine] yielded a Ki of under 1 µM.
Compound `O=C(c1nc(Nc2ccc(C(F)(F)F)cc2)c2ccc(-c3ncccc3C(F)(F)F)nc2n1)N1CCCCC1` [Compound 460, Piperidin-1-yl-[4-(4-trifluoromethyl-phenylamino)-7-(3-trifluorornethyl-pyridin-2-yl)-pyrido[2,3-d]pyrimidin-2-yl]-methanone] has a Ki of under 1 µM.
Work on `FC(F)(F)c1ccc(Nc2nc(CCN3CCCCC3)nc3cc(-c4ncccc4C(F)(F)F)ccc23)cc1` [Compound 399, [2-Piperidin-1-ylethyl-7-(3-trifluoromethyl-pyridin-2-yl)-quinazolin-4-yl]-(4-trifluoromethyl-phenyl)-amine] yielded a Ki of under 1 µM.
For `CC(C)c1ccc(Nc2nc(CN3C[C@@H](C)O[C@@H](C)C3)nc3cc(-c4ncccc4C(F)(F)F)cnc23)cc1` [Compound 613, [2-(2,6-Dimethyl-morpholin-4-ylmethyl)-7-(3-trifluoromethyl-pyridin-2-yl)-pyrido[3,2-d]pyrimidin-4-yl]-(4-isopropyl-phenyl)-amine (cis)], the Ki was under 1 µM.
`COCc1nc(Nc2ccc(C(C)(C)C(C)=O)cc2)c2ccc(-c3ncccc3C)nc2n1` [Compound 212, 3-{4-[2-Methoxymethyl-7-(3-methyl-pyridin-2-yl)-pyrido[2,3-d]pyrimidin-4-ylamino]-phenyl}-3-methyl-butan-2-one] showed a Ki of under 1 µM.

Reference: patent publication US20040156869A1, “2-substituted quinazolin-4-ylamine analogues” (Neurogen Corporation, priority 2002, published 2004)
